Experimental data from ChEMBL document CHEMBL3817795, “Identification and optimisation of a series of N-(4-anilino-2-pyridyl)acetamide activin receptor-like kinase 1 (ALK1) inhibitors” (Medchemcomm, 2016).
≈ marks a conversion by molar mass, not a printed value.

How the values were obtained:
[1] = Lipophilicity, log D of the compound at pH 7.4; type: physicochemical; conditions: buffer
[2] = Solubility of the compound; type: physicochemical

| SMILES | logD [1] | solubility [2] [µM] |
| --- | --- | --- |
| CC(=O)Nc1cc(Nc2c(Cl)ccc3c2OCO3)ccn1 | 2.7 | – |
| O=C(Nc1cc(Nc2ccccc2Cl)ccn1)C1CC1 | – | 49 (≈ 14.1 µg/mL) |
